# Assay results as given in US6376426B1, “Herbicidal 3-(heterocycl-1-yl)-uracils” (BASF Aktiengesellschaft, priority 1999, dated 2002).
# What was measured:
# Type in all cases: in vivo
# Galium aparine = assay: Post-emergence herbicidal test, GALAP; design: key to herbicidal effect (0-9 scale) GALAP / herbicidal rating GALAP: A rating 0 indicates growth as untreated control; a rating 9 indicates death; conditions: for herbicidal rating GALAP: POST, 0-9 scale, 21 days after spraying
# Outline: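 Herbicidal effect is recorded on a linear 0-9 scale, where 0 means growth like untreated control and 9 means death, with one unit approximating 10% more effect.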
# Alopecurus myosuroides = assay: Post-emergence herbicidal test, ALOMY; design: key: A rating 0 indicates growth as untreated control; a rating 9 indicates death; conditions: 0-9 scale, 21 days after spraying
# Outline: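 Compounds in acetone solution were diluted with water and sprayed post-emergence onto foliage and soil at about 1000, 800, 400, 250 or 100 g/ha. Plants were kept on greenhouse benches under conventional care.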
# Stellaria media = assay: Pre-emergence herbicidal test, STEME; design: key to herbicidal effect (0-9 scale) STEME / herbicidal rating STEME: A rating 0 indicates growth as untreated control; a rating 9 indicates death; conditions: for herbicidal rating STEME: PRE, 0-9 scale, 21 days after spraying
# Glycine max = assay: Pre-emergence herbicidal test, GLXMA; design: key to herbicidal effect (0-9 scale) GLXMA / herbicidal rating GLXMA: A rating 0 indicates growth as untreated control; a rating 9 indicates death; conditions: for herbicidal rating GLXMA: PRE, 0-9 scale, 21 days after spraying
# Method: (§1) To evaluate their herbicidal activity, compounds according to the invention are tested using a representative range of plants:
# (§2) The pre-emergence tests involve spraying a liquid formulation of the compound onto the soil in which the seeds of the plant species mentioned above has recently been sown.
# The soil used in the tests is a prepared horticultural loam. The formulations used in the tests are prepared from solutions of the test compounds in acetone containing 0.4% by weight of an alkylphenol/ethylene oxide condensate available under the trade mark TRITON X-155. […] In these tests untreated sown soil are used as controls.
# (§3) The herbicidal effects of the test compounds are assessed visually twenty-one days after spraying the foliage and the soil and are recorded on a 0-9 scale. A rating 0 indicates growth as untreated control, a rating 9 indicates death. An increase of 1 unit on the linear scale approximates to a 10% increase in the level of effect.
# [1] = test system: representative range of plants; assay: Herbicidal activity, pre- and post-emergence, overall; conditions: both in pre- and post-emergence
# Method: as §1, §2
# The soil used in the tests is a prepared horticultural loam. The formulations used in the tests are prepared from solutions of the test compounds in acetone containing 0.4% by weight of an alkylphenol/ethylene oxide condensate available under the trade mark TRITON X-155. These acetone solutions are diluted with water and the resulting formulations applied at dosage levels corresponding to 1000 g and 250 g/ha of active material per hectare in a volume equivalent to 900 litres per hectare. In these tests untreated sown soil are used as controls.
# These acetone solutions are diluted with water and the resulting formulations applied at dosage levels equivalent to about 1000, 800, 400, 250 or 100 g/ha per hectare of test compound per pot. After spraying, the plants are placed on greenhouse benches and are cared for in the usual manner, commensurate with conventional greenhouse practices.
# as §3
smiles,measurement,setting,value
"Cn1c(C(F)(F)F)cc(=O)n(-n2ccc3c(Cl)cccc32)c1=O [Example 169, 3-(4-Chloro-indol-1-yl)-1-methyl-6-trifluoromethylpyrimidine-2,4-dione]",herbicidal rating GALAP,Galium aparine; 25 g/ha,9
same,herbicidal rating GALAP,Galium aparine; 100 g/ha,9
same,herbicidal rating GALAP,Galium aparine; 400 g/ha,9
same,control of Galium,"Galium aparine; post-emergence, 12.5 g/ha",excellent control
same,herbicidal rating ALOMY,Alopecurus myosuroides; 25 g/ha,2
same,herbicidal rating ALOMY,Alopecurus myosuroides; 100 g/ha,6
same,herbicidal rating ALOMY,Alopecurus myosuroides; 400 g/ha,9
same,herbicidal rating STEME,Stellaria media; 12.5 g/ha,6
same,herbicidal rating STEME,Stellaria media; 25 g/ha,8
same,herbicidal rating STEME,Stellaria media; 100 g/ha,9
same,herbicidal rating STEME,Stellaria media; 400 g/ha,9
same,control of Stellaria,"Stellaria media; pre-emergence, 25 g/ha",good control
same,herbicidal rating GLXMA,Glycine max; 12.5 g/ha,0
same,herbicidal rating GLXMA,Glycine max; 25 g/ha,0
same,herbicidal rating GLXMA,Glycine max; 100 g/ha,3
same,herbicidal rating GLXMA,Glycine max; 400 g/ha,5
same,selectivity in soy beans,"Glycine max; pre-emergence, 25 g/ha",Surprisingly good selectivity
same,herbicidal performance,[1],excellent performance
